Like-named read-outs stand apart in the source and are kept apart here.
System: subjects with PAD
Description: Supine vital signs were measured at the Screening Visit. The subject rested in a supine position for a minimum of 3 minutes prior to obtaining vital sign measurements. Vital signs included BP and pulse rate. Postural vital signs, including both supine and standing measurements of blood pressure and pulse rate, were recorded at all study visits following the first dose of IP administration. Measurements were performed as follows: (1) the subject rested in a supine position for a minimum of 3 minutes, (2) vital signs (BP and pulse rate) were measured while the subject was supine, (3) the subject assumed a standing position for a minimum of 5 minutes, and (4) vital signs (BP and pulse rate) were measured while the subject was standing.

[1] = 40-mg group, Screening (baseline)
[2] = 40-mg group, Visit 7 (Day 71, dose doubled)
[3] = 40-mg group, Visit 8 (6 days after dose doubling)
[4] = 80-mg group, Screening (baseline)
[5] = 80-mg group, Visit 7 (Day 71, dose doubled)
[6] = 80-mg group, Visit 8 (6 days after dose doubling)

SMILES: O=NO [sodium nitrite]
- Blood Pressure diastolic, Supine (Mean) [1]: 75.8
- Blood Pressure systolic, Supine (Mean) [1]: 136.8
- Pulse, Supine (Mean) [1]: 71.4
- Blood Pressure diastolic, Standing (Mean) (40-mg group, Visit 1 (Day 0)): 73.1
- Blood Pressure diastolic, Supine (Mean) (40-mg group, Visit 1 (Day 0)): 72.3
- Blood Pressure systolic, Standing (Mean) (40-mg group, Visit 1 (Day 0)): 129.5
- Blood Pressure systolic, Supine (Mean) (40-mg group, Visit 1 (Day 0)): 129.7
- Diastolic BP, Orthostatic Changes (40-mg group, Visit 1 (Day 0)): 0.8
- Pulse, Orthostatic Changes (40-mg group, Visit 1 (Day 0)): 1.8
- Pulse, Standing (Mean) (40-mg group, Visit 1 (Day 0)): 75.8
- Pulse, Supine (Mean) (40-mg group, Visit 1 (Day 0)): 74.1
- Systolic BP, Orthostatic Changes (40-mg group, Visit 1 (Day 0)): −0.3
- Blood Pressure diastolic, Standing (Mean) (40-mg group, Visit 2 (Day 1)): 72.6
- Blood Pressure diastolic, Supine (Mean) (40-mg group, Visit 2 (Day 1)): 70.5
- Blood Pressure systolic, Standing (Mean) (40-mg group, Visit 2 (Day 1)): 128.3
- Blood Pressure systolic, Supine (Mean) (40-mg group, Visit 2 (Day 1)): 128.0
- Diastolic BP, Orthostatic Changes (40-mg group, Visit 2 (Day 1)): 2.1
- Pulse, Orthostatic Changes (40-mg group, Visit 2 (Day 1)): 4.5
- Pulse, Standing (Mean) (40-mg group, Visit 2 (Day 1)): 78.6
- Pulse, Supine (Mean) (40-mg group, Visit 2 (Day 1)): 74.1
- Systolic BP, Orthostatic Changes (40-mg group, Visit 2 (Day 1)): 0.3
- Blood Pressure diastolic, Standing (Mean) (40-mg group, Visit 3 (Day 4)): 73.1
- Blood Pressure diastolic, Supine (Mean) (40-mg group, Visit 3 (Day 4)): 72.5
- Blood Pressure systolic, Standing (Mean) (40-mg group, Visit 3 (Day 4)): 129.4
- Blood Pressure systolic, Supine (Mean) (40-mg group, Visit 3 (Day 4)): 129.8
- Diastolic BP, Orthostatic Changes (40-mg group, Visit 3 (Day 4)): 0.6
- Pulse, Orthostatic Changes (40-mg group, Visit 3 (Day 4)): 2.0
- Pulse, Standing (Mean) (40-mg group, Visit 3 (Day 4)): 76.7
- Pulse, Supine (Mean) (40-mg group, Visit 3 (Day 4)): 74.7
- Systolic BP, Orthostatic Changes (40-mg group, Visit 3 (Day 4)): −0.4
- Blood Pressure diastolic, Standing (Mean) (40-mg group, Visit 4 (Day 14)): 71.0
- Blood Pressure diastolic, Supine (Mean) (40-mg group, Visit 4 (Day 14)): 71.1
- Blood Pressure systolic, Standing (Mean) (40-mg group, Visit 4 (Day 14)): 124.9
- Blood Pressure systolic, Supine (Mean) (40-mg group, Visit 4 (Day 14)): 128.4
- Diastolic BP, Orthostatic Changes (40-mg group, Visit 4 (Day 14)): −0.1
- Pulse, Orthostatic Changes (40-mg group, Visit 4 (Day 14)): 3.9
- Pulse, Standing (Mean) (40-mg group, Visit 4 (Day 14)): 75.6
- Pulse, Supine (Mean) (40-mg group, Visit 4 (Day 14)): 71.7
- Systolic BP, Orthostatic Changes (40-mg group, Visit 4 (Day 14)): −3.4
- Blood Pressure diastolic, Standing (Mean) (40-mg group, Visit 5 (Day 28)): 71.6
- Blood Pressure diastolic, Supine (Mean) (40-mg group, Visit 5 (Day 28)): 72.0
- Blood Pressure systolic, Standing (Mean) (40-mg group, Visit 5 (Day 28)): 124.3
- Blood Pressure systolic, Supine (Mean) (40-mg group, Visit 5 (Day 28)): 124.1
- Diastolic BP, Orthostatic Changes (40-mg group, Visit 5 (Day 28)): −0.4
- Pulse, Orthostatic Changes (40-mg group, Visit 5 (Day 28)): 3.8
- Pulse, Standing (Mean) (40-mg group, Visit 5 (Day 28)): 76.6
- Pulse, Supine (Mean) (40-mg group, Visit 5 (Day 28)): 72.7
- Systolic BP, Orthostatic Changes (40-mg group, Visit 5 (Day 28)): 0.3
- Blood Pressure diastolic, Standing (Mean) (40-mg group, Visit 6 (Day 70)): 73.2
- Blood Pressure diastolic, Supine (Mean) (40-mg group, Visit 6 (Day 70)): 73.7
- Blood Pressure systolic, Standing (Mean) (40-mg group, Visit 6 (Day 70)): 127.6
- Blood Pressure systolic, Supine (Mean) (40-mg group, Visit 6 (Day 70)): 127.3
- Diastolic BP, Orthostatic Changes (40-mg group, Visit 6 (Day 70)): −0.5
- Pulse, Orthostatic Changes (40-mg group, Visit 6 (Day 70)): 3.5
- Pulse, Standing (Mean) (40-mg group, Visit 6 (Day 70)): 73.9
- Pulse, Supine (Mean) (40-mg group, Visit 6 (Day 70)): 7034
- Systolic BP, Orthostatic Changes (40-mg group, Visit 6 (Day 70)): 0.3
- Blood Pressure diastolic, Standing (Mean) [2]: 73.2
- Blood Pressure diastolic, Supine (Mean) [2]: 71.3
- Blood Pressure systolic, Standing (Mean) [2]: 122.2
- Blood Pressure systolic, Supine (Mean) [2]: 126.7
- Diastolic BP, Orthostatic Changes [2]: 1.9
- Pulse, Orthostatic Changes [2]: 3.2
- Pulse, Standing (Mean) [2]: 76.3
- Pulse, Supine (Mean) [2]: 73.1
- Systolic BP, Orthostatic Changes [2]: −4.5
- Blood Pressure diastolic, Standing (Mean) [3]: 68.7
- Blood Pressure diastolic, Supine (Mean) [3]: 72.2
- Blood Pressure systolic, Standing (Mean) [3]: 123.1
- Blood Pressure systolic, Supine (Mean) [3]: 130.0
- Diastolic BP, Orthostatic Changes [3]: −3.5
- Pulse, Orthostatic Changes [3]: 4.1
- Pulse, Standing (Mean) [3]: 74.3
- Pulse, Supine (Mean) [3]: 70.2
- Systolic BP, Orthostatic Changes [3]: −6.9
- Blood Pressure diastolic, Supine (Mean) [4]: 69.4
- Blood Pressure systolic, Supine (Mean) [4]: 132.4
- Pulse, Supine (Mean) [4]: 63.9
- Blood Pressure diastolic, Standing (Mean) (80-mg group, Visit 1 (Day 0)): 70.2
- Blood Pressure diastolic, Supine (Mean) (80-mg group, Visit 1 (Day 0)): 68.4
- Blood Pressure systolic, Standing (Mean) (80-mg group, Visit 1 (Day 0)): 125.4
- Blood Pressure systolic, Supine (Mean) (80-mg group, Visit 1 (Day 0)): 129.8
- Diastolic BP, Orthostatic Changes (80-mg group, Visit 1 (Day 0)): 1.8
- Pulse, Orthostatic Changes (80-mg group, Visit 1 (Day 0)): 6.9
- Pulse, Standing (Mean) (80-mg group, Visit 1 (Day 0)): 72.6
- Pulse, Supine (Mean) (80-mg group, Visit 1 (Day 0)): 65.6
- Systolic BP, Orthostatic Changes (80-mg group, Visit 1 (Day 0)): −4.4
- Blood Pressure diastolic, Standing (Mean) (80-mg group, Visit 2 (Day 1)): 71.9
- Blood Pressure diastolic, Supine (Mean) (80-mg group, Visit 2 (Day 1)): 66.7
- Blood Pressure systolic, Standing (Mean) (80-mg group, Visit 2 (Day 1)): 123.1
- Blood Pressure systolic, Supine (Mean) (80-mg group, Visit 2 (Day 1)): 122.8
- Diastolic BP, Orthostatic Changes (80-mg group, Visit 2 (Day 1)): 5.2
- Pulse, Orthostatic Changes (80-mg group, Visit 2 (Day 1)): 7.3
- Pulse, Standing (Mean) (80-mg group, Visit 2 (Day 1)): 72.3
- Pulse, Supine (Mean) (80-mg group, Visit 2 (Day 1)): 65.1
- Systolic BP, Orthostatic Changes (80-mg group, Visit 2 (Day 1)): 0.3
- Blood Pressure diastolic, Standing (Mean) (80-mg group, Visit 3 (Day 4)): 69.2
- Blood Pressure diastolic, Supine (Mean) (80-mg group, Visit 3 (Day 4)): 66.7
- Blood Pressure systolic, Standing (Mean) (80-mg group, Visit 3 (Day 4)): 124.8
- Blood Pressure systolic, Supine (Mean) (80-mg group, Visit 3 (Day 4)): 127.1
- Diastolic BP, Orthostatic Changes (80-mg group, Visit 3 (Day 4)): 2.5
- Pulse, Orthostatic Changes (80-mg group, Visit 3 (Day 4)): 6.2
- Pulse, Standing (Mean) (80-mg group, Visit 3 (Day 4)): 72.9
- Pulse, Supine (Mean) (80-mg group, Visit 3 (Day 4)): 66.7
- Systolic BP, Orthostatic Changes (80-mg group, Visit 3 (Day 4)): −2.3
- Blood Pressure diastolic, Standing (Mean) (80-mg group, Visit 4 (Day 14)): 68.8
- Blood Pressure diastolic, Supine (Mean) (80-mg group, Visit 4 (Day 14)): 65.2
- Blood Pressure systolic, Standing (Mean) (80-mg group, Visit 4 (Day 14)): 123.7
- Blood Pressure systolic, Supine (Mean) (80-mg group, Visit 4 (Day 14)): 125.1
- Diastolic BP, Orthostatic Changes (80-mg group, Visit 4 (Day 14)): 3.5
- Pulse, Orthostatic Changes (80-mg group, Visit 4 (Day 14)): 7.9
- Pulse, Standing (Mean) (80-mg group, Visit 4 (Day 14)): 72.6
- Pulse, Supine (Mean) (80-mg group, Visit 4 (Day 14)): 64.6
- Systolic BP, Orthostatic Changes (80-mg group, Visit 4 (Day 14)): −1.4
- Blood Pressure diastolic, Standing (Mean) (80-mg group, Visit 5 (Day 28)): 71.9
- Blood Pressure diastolic, Supine (Mean) (80-mg group, Visit 5 (Day 28)): 68.9
- Blood Pressure systolic, Standing (Mean) (80-mg group, Visit 5 (Day 28)): 119.5
- Blood Pressure systolic, Supine (Mean) (80-mg group, Visit 5 (Day 28)): 124.6
- Diastolic BP, Orthostatic Changes (80-mg group, Visit 5 (Day 28)): 3.0
- Pulse, Orthostatic Changes (80-mg group, Visit 5 (Day 28)): 3.8
- Pulse, Standing (Mean) (80-mg group, Visit 5 (Day 28)): 72.5
- Pulse, Supine (Mean) (80-mg group, Visit 5 (Day 28)): 68.7
- Systolic BP, Orthostatic Changes (80-mg group, Visit 5 (Day 28)): −5.2
- Blood Pressure diastolic, Standing (Mean) (80-mg group, Visit 6 (Day 70)): 70.0
- Blood Pressure diastolic, Supine (Mean) (80-mg group, Visit 6 (Day 70)): 66.2
- Blood Pressure systolic, Standing (Mean) (80-mg group, Visit 6 (Day 70)): 124.8
- Blood Pressure systolic, Supine (Mean) (80-mg group, Visit 6 (Day 70)): 123.1
- Diastolic BP, Orthostatic Changes (80-mg group, Visit 6 (Day 70)): 3.8
- Pulse, Orthostatic Changes (80-mg group, Visit 6 (Day 70)): 2.1
- Pulse, Standing (Mean) (80-mg group, Visit 6 (Day 70)): 67.6
- Pulse, Supine (Mean) (80-mg group, Visit 6 (Day 70)): 65.5
- Systolic BP, Orthostatic Changes (80-mg group, Visit 6 (Day 70)): 1.6
- Blood Pressure diastolic, Standing (Mean) [5]: 67.1
- Blood Pressure diastolic, Supine (Mean) [5]: 64.4
- Blood Pressure systolic, Standing (Mean) [5]: 123.3
- Blood Pressure systolic, Supine (Mean) [5]: 118.4
- Diastolic BP, Orthostatic Changes [5]: 2.7
- Pulse, Orthostatic Changes [5]: 6.1
- Pulse, Standing (Mean) [5]: 70.4
- Pulse, Supine (Mean) [5]: 64.3
- Systolic BP, Orthostatic Changes [5]: 4.8
- Blood Pressure diastolic, Standing (Mean) [6]: 67.9
- Blood Pressure diastolic, Supine (Mean) [6]: 66.9
- Blood Pressure systolic, Standing (Mean) [6]: 117.7
- Blood Pressure systolic, Supine (Mean) [6]: 120.7
- Diastolic BP, Orthostatic Changes [6]: 1.0
- Pulse, Orthostatic Changes [6]: 4.3
- Pulse, Standing (Mean) [6]: 72.6
- Pulse, Supine (Mean) [6]: 68.3
- Systolic BP, Orthostatic Changes [6]: −3.0
- Hypotensive effects (treated groups, 40 and 80 mg BID): Dose dependent hypotensive affects were observed

Source: US9561249B2, “Pharmaceutical formulations of nitrite and uses thereof” (TheraVasc Inc., priority 2013, dated 2017)
